Test results as given in US7074789B2, “Kinase inhibitors” (Amgen Inc., priority 1999, dated 2006).

Tests used:
Type in all cases: biochemical
Itk = target: T1, Itk (Homo sapiens, UniProt Q08881); assay: Kinase inhibition assay (33P transfer), Itk; conditions: Table 3; read-out: Itk-1
T1 construct: Kinases are expressed as either kinase domains or full length constructs; made in house
T1 sequence (Q08881 1-620): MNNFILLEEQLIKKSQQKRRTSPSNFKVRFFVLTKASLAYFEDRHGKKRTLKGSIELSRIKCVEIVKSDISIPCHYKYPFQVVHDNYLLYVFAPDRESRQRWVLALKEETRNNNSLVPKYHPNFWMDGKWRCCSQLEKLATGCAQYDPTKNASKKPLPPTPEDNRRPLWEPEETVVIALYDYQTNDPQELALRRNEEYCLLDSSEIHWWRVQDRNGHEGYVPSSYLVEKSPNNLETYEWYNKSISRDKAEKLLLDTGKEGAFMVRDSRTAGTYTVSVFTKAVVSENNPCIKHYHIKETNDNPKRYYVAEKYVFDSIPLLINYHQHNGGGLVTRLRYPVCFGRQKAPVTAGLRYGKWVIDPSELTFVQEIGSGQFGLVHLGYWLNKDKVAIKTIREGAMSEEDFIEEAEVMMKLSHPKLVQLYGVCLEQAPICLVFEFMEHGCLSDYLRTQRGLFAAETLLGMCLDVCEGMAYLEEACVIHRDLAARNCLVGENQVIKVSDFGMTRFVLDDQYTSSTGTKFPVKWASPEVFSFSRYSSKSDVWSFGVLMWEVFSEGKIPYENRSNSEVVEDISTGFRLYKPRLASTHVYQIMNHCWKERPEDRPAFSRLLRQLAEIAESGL
Outline: (§1)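 Recombinant kinase domains or full-length GST- or His-tagged constructs, from E. coli or baculovirus/High Five cells, sometimes with regulatory polypeptides. Transfer of 33P from ATP to plate-bound poly(Glu,Tyr) 4:1 or poly(Arg,Ser) 3:1 counted by liquid scintillation after phosphoric acid wash; IC50 is the concentration halving incorporation.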

ErbB4 = target: T2, ErbB4 (Homo sapiens, UniProt Q15303); assay: Kinase inhibition assay (33P transfer), ErbB4; conditions: read-out: ErbB4-1
T2 construct: Kinases are expressed as either kinase domains or full length constructs; made in house

EGFR = target: T3, EGFR (Homo sapiens, UniProt P00533); assay: Kinase inhibition assay (33P transfer), EGFR; conditions: Table 2, kinase inhibition class; read-out: EGFR-1
T3 construct: Kinases are expressed as either kinase domains or full length constructs; made in house
Outline: as §1

Lyn = target: T4, Lyn (Homo sapiens, UniProt P07948); assay: Kinase inhibition assay (33P transfer), Lyn; conditions: Table 6, Lyn-1 kinase inhibition class
T4 construct: Kinases are expressed as either kinase domains or full length constructs; made in house
Outline: as §1

Tek = target: T5, Tek (Homo sapiens, UniProt Q02763); assay: Kinase inhibition assay (33P transfer), Tek; conditions: read-out: Tek-1
T5 construct: Kinases are expressed as either kinase domains or full length constructs; made in house
Outline: as §1

Hck-1 = target: T6, Hck-1 (Homo sapiens, UniProt P08631); assay: Kinase inhibition assay (33P transfer), Hck; conditions: Table 6, Hck-1 kinase inhibition class
T6 construct: Kinases are expressed as either kinase domains or full length constructs; made in house
T6 sequence (P08631 whole entry, the tested form may be a part): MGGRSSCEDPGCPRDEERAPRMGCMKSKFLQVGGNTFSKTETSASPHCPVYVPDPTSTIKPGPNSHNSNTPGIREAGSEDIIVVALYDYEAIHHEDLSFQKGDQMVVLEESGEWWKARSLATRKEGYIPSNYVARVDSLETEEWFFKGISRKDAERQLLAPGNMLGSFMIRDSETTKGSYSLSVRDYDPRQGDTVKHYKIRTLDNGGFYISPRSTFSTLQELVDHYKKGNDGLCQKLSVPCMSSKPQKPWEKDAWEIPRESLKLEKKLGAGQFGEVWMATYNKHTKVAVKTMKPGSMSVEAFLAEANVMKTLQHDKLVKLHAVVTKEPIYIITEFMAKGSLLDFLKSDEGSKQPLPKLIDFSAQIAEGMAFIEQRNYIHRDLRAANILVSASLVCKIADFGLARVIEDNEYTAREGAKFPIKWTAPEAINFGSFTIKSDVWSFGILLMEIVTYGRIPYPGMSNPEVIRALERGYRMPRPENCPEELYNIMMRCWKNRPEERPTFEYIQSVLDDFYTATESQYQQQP

Src = target: T7, Src (Homo sapiens, UniProt P12931); assay: Kinase inhibition assay (33P transfer), Src; conditions: Table 6, Src-1 kinase inhibition class
T7 construct: Kinases are expressed as either kinase domains or full length constructs; made in house
Outline: as §1

AKT = target: T8, AKT (Homo sapiens, UniProt Q9Y243); assay: Kinase inhibition assay (33P transfer), AKT; conditions: Table 2, kinase inhibition class; read-out: AKT3-1
T8 construct: Kinases are expressed as either kinase domains or full length constructs; made in house
T8 sequence (Q9Y243 whole entry, the tested form may be a part): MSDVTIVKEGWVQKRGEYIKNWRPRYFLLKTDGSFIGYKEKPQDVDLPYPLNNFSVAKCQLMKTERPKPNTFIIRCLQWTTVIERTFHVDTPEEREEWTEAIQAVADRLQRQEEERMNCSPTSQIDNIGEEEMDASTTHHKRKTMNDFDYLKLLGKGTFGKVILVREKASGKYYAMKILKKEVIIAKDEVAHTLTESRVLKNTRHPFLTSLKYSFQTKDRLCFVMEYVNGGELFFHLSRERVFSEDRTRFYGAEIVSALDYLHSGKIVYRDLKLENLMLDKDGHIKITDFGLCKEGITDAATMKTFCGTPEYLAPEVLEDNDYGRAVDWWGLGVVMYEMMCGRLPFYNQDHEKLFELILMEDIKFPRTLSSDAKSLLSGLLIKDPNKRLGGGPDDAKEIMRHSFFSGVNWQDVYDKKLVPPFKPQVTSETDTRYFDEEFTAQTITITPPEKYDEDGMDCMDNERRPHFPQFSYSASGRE
Outline: (§2)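 Steps: express kinase as GST or polyHistidine fusion in E. coli or High Five cells; optionally co-express or mix with regulatory polypeptides; incubate with 33P-ATP and plate-attached poly(Glu,Tyr) 4:1 or poly(Arg,Ser) 3:1; wash with 0.5% phosphoric acid; count by liquid scintillation.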

Lck = target: T9, Lck (Homo sapiens, UniProt P06239); assay: Kinase inhibition assay (33P transfer), Lck; conditions: Table 3; read-out: Lck-1
T9 construct: Kinases are expressed as either kinase domains or full length constructs; made in house
T9 sequence (P06239 whole entry, species assumed, the tested form may be a part): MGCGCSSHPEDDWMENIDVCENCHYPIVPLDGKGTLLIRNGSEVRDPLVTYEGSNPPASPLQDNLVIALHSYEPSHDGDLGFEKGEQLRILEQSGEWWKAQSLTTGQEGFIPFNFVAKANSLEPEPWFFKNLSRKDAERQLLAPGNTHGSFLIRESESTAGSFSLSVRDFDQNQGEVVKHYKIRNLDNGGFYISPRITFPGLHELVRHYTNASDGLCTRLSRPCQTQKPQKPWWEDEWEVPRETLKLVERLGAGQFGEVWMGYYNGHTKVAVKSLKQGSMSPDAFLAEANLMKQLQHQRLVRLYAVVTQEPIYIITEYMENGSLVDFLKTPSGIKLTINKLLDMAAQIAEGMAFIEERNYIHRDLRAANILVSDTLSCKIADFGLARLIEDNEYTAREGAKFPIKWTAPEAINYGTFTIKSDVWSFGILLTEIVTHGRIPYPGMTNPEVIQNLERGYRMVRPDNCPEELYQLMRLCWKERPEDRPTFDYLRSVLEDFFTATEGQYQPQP
Outline: as §2

c-Met = target: T10, c-Met (Homo sapiens, UniProt P08581); assay: Kinase inhibition assay (33P transfer), c-Met; conditions: Table 2, kinase inhibition class; read-out: Met-1
T10 construct: Kinases are expressed as either kinase domains or full length constructs; made in house
T10 sequence (P08581 25-1390): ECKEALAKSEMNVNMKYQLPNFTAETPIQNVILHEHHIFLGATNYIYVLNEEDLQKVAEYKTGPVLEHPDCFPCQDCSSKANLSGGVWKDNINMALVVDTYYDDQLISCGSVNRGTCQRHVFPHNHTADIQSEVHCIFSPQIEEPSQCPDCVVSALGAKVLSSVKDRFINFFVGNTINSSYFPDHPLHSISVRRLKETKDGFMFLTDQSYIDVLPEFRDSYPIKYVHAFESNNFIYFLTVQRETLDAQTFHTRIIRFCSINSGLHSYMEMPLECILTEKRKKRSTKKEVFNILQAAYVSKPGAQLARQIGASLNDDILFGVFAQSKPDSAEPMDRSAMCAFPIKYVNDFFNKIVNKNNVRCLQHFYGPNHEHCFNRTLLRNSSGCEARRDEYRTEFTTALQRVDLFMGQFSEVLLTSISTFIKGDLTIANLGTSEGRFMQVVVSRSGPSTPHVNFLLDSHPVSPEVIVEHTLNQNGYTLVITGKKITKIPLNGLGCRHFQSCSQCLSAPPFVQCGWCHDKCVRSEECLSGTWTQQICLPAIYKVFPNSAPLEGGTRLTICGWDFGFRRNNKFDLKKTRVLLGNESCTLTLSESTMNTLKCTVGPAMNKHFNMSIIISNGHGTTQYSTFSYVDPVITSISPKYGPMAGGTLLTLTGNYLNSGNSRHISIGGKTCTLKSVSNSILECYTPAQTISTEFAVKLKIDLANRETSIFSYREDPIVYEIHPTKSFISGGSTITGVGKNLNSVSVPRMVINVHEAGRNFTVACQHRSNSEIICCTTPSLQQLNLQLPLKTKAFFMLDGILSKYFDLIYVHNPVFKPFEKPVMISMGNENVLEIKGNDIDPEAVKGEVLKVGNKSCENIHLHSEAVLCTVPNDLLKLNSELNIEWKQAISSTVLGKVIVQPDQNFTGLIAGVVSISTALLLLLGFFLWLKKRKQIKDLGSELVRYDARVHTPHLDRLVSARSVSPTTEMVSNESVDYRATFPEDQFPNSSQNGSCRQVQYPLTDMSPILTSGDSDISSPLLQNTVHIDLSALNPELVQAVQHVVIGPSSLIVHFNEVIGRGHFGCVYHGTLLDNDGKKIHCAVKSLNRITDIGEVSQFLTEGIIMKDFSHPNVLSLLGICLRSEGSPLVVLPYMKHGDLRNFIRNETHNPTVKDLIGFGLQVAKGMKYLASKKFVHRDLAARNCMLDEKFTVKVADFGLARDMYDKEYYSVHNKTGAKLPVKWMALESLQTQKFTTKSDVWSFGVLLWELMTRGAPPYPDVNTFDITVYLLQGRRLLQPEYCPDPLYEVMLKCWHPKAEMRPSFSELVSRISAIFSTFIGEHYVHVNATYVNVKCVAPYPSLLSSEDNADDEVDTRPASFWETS
Outline: as §1

Flt-1 = target: T11, Flt-1 (Homo sapiens, UniProt P17948); assay: Kinase inhibition assay (33P transfer), Flt-1
T11 construct: Kinases are expressed as either kinase domains or full length constructs; made in house
T11 sequence (P17948 27-1338, species assumed): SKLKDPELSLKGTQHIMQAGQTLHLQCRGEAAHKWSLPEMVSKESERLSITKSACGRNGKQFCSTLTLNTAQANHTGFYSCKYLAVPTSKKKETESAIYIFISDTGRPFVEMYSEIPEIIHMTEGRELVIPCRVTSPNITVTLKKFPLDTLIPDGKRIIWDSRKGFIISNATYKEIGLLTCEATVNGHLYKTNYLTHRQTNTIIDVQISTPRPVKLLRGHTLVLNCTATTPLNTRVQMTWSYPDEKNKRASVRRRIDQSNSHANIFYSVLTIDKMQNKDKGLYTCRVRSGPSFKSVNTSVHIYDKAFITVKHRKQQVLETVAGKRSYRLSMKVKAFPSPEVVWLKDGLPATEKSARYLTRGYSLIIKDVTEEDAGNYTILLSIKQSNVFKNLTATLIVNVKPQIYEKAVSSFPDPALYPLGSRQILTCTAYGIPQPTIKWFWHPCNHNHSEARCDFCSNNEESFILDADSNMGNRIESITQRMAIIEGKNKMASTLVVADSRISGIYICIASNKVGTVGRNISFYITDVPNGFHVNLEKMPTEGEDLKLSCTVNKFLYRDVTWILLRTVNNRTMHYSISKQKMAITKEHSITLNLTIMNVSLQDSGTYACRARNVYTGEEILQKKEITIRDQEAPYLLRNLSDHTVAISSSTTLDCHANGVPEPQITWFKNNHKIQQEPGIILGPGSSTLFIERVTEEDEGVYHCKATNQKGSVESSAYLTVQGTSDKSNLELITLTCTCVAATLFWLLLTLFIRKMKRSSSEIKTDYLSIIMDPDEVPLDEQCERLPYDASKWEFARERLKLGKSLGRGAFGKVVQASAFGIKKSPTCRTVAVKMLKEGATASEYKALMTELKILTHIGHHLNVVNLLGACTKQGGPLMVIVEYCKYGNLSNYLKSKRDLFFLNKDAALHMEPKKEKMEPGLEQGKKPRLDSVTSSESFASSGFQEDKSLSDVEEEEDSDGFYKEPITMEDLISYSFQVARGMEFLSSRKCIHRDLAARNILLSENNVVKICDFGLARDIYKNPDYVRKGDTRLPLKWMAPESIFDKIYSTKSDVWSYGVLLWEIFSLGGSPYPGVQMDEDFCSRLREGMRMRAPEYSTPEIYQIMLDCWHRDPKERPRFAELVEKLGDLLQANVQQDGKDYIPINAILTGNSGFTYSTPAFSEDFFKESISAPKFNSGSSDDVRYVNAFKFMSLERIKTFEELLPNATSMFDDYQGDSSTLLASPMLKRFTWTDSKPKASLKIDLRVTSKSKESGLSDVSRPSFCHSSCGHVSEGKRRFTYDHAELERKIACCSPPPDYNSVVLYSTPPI
Outline: as §1

FGFR1 = target: T12, FGFR1 (Homo sapiens, UniProt P11362); assay: Kinase inhibition assay (33P transfer), FGFR1; conditions: read-out: FGFR1-1
T12 construct: Kinases are expressed as either kinase domains or full length constructs; made in house
T12 sequence (P11362 22-822, species assumed): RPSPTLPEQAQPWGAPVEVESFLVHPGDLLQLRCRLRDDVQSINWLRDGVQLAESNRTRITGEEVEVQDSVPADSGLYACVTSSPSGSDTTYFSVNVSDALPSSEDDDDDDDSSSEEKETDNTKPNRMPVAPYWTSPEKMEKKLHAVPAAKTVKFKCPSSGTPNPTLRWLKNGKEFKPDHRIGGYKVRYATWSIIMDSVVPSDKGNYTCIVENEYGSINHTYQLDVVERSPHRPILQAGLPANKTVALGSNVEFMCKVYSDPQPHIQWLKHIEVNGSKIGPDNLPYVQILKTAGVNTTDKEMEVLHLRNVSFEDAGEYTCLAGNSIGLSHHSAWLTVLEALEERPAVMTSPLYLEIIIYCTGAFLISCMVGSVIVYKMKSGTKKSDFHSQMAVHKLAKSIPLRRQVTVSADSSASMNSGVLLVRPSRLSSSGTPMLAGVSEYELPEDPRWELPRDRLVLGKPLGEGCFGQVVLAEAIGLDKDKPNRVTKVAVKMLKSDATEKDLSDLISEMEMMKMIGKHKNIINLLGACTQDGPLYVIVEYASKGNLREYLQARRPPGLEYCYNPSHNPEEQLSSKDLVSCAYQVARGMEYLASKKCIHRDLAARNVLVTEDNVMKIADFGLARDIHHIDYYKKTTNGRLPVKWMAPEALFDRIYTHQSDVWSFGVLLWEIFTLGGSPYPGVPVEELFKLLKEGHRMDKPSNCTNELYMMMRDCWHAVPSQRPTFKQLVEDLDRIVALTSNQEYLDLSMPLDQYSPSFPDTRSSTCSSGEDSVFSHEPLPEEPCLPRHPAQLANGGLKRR

PDGFRB = target: T13, PDGFRB (Homo sapiens, UniProt P09619); assay: Kinase inhibition assay (33P transfer), PDGFRB; conditions: read-out: PDGFRB-1
T13 construct: Kinases are expressed as either kinase domains or full length constructs; made in house

ErbB2 = target: T14, ErbB2 (Homo sapiens, UniProt P04626); assay: Kinase inhibition assay (33P transfer), ErbB2; conditions: read-out: ErbB2-2
T14 construct: Kinases are expressed as either kinase domains or full length constructs; made in house
Outline: as §1

Compound	IC50 (Itk) [µM]	IC50 (ErbB4) [µM]	IC50 (EGFR) [µM]	IC50 (Lyn) [µM]	IC50 (Tek) [µM]	IC50 (Hck-1) [µM]	IC50 (Src) [µM]	IC50 (AKT) [µM]	IC50 (Lck) [µM]	IC50 (c-Met) [µM]	IC50 (Flt-1) [µM]	IC50 (FGFR1) [µM]	IC50 (PDGFRB) [µM]	IC50 (ErbB2) [µM]
C#Cc1cccc(Nc2ncnc(Nc3cc(OC)c(OC)c(OC)c3)n2)c1 [Compound 74]	> 11.9	> 11.9	< 1.06	< 1.06	> 11.9	> 11.9	1.06 to 6.36	> 11.9	1.06 to 6.36	9.27 to 11.9	–	–	–	–
COc1cc(Nc2ncnc(-c3c(O)[nH]c4ccccc34)n2)cc(OC)c1OC [Compound 380]	> 11.4	1.02 to 6.1	> 11.4	1.02 to 6.1	> 11.4	> 11.4	> 11.4	> 11.4	> 11.4	> 11.4	< 1.02	< 1.02	–	–
COc1cccc(-c2ncnc(Nc3cc(OC)c(OC)c(OC)c3)n2)c1 [Compound 232]	> 12.2	–	6.51 to 9.5	> 12.2	> 12.2	> 12.2	> 12.2	> 12.2	1.09 to 6.51	> 12.2	–	–	–	–
COc1cc(Nc2ncnc(Nc3ccc(N4CCOCC4)cc3)n2)cc(OC)c1OC [Compound 101]	> 10.3	–	> 10.3	5.47 to 7.98	7.98 to 10.3	> 10.3	0.912 to 5.47	> 10.3	5.47 to 7.98	> 10.3	–	–	–	–
COc1cc(Nc2ncnc(Nc3cc(-c4ccccc4)nn3C)n2)cc(OC)c1OC [Compound 394]	> 10.4	> 10.4	8.07 to 10.4	< 0.923	> 10.4	> 10.4	0.923 to 5.54	> 10.4	0.923 to 5.54	> 10.4	< 0.923	0.923 to 5.54	–	–
COc1cc(Nc2ncnc(Nc3ccc4c(c3)Cc3ccccc3-4)n2)cc(OC)c1OC [Compound 95]	> 10.2	–	> 10.2	5.44 to 7.93	> 10.2	> 10.2	> 10.2	> 10.2	0.906 to 5.44	> 10.2	–	–	–	–
COc1cc(Nc2ncnc(Nc3cc(OC)c(OC)c(OC)c3)n2)cc(OC)c1OC [Compound 76]	> 10.1	–	7.89 to 10.1	0.902 to 5.41	> 10.1	> 10.1	< 0.902	> 10.1	0.902 to 5.41	> 10.1	–	–	–	–
COc1cc(Nc2ncnc(-c3ccnc(NCCCO)c3)n2)cc(OC)c1OC [Compound 180]	> 10.9	> 10.9	> 10.9	0.97 to 5.82	> 10.9	> 10.9	> 10.9	> 10.9	0.97 to 5.82	> 10.9	> 10.9	> 10.9	–	–
COc1cc(Nc2ncnc(-n3c(Nc4cccc(C)c4)nc4ccccc43)n2)cc(OC)c1OC [Compound 386]	> 9.31	> 9.31	> 9.31	> 9.31	> 9.31	> 9.31	> 9.31	> 9.31	4.96 to 7.24	> 9.31	< 0.827	< 0.827	–	–
COc1cc(Nc2ncnc(-n3c(Nc4ccc(C)cc4)nc4ccccc43)n2)cc(OC)c1OC [Compound 385]	> 9.31	> 9.31	> 9.31	0.827 to 4.96	> 9.31	> 9.31	> 9.31	> 9.31	0.827 to 4.96	> 9.31	< 0.827	< 0.827	–	–
COc1cc(Nc2ncnc(-n3c(Nc4ccccc4C)nc4ccccc43)n2)cc(OC)c1OC [Compound 384]	> 9.31	> 9.31	7.24 to 9.31	< 0.827	> 9.31	> 9.31	> 9.31	> 9.31	< 0.827	7.24 to 9.31	> 9.31	0.827 to 4.96	–	–

Second part, the compound after the results:

IC50 (Itk) [µM]	IC50 (ErbB4) [µM]	IC50 (EGFR) [µM]	IC50 (Lyn) [µM]	IC50 (Tek) [µM]	IC50 (Hck-1) [µM]	IC50 (Src) [µM]	IC50 (AKT) [µM]	IC50 (Lck) [µM]	IC50 (c-Met) [µM]	IC50 (Flt-1) [µM]	IC50 (FGFR1) [µM]	IC50 (PDGFRB) [µM]	IC50 (ErbB2) [µM]	Compound
6.83 to 8.78	> 8.78	> 8.78	> 8.78	6.83 to 8.78	> 8.78	> 8.78	> 8.78	0.78 to 4.68	6.83 to 8.78	< 0.78	< 0.78	–	–	COc1cc(Nc2ncnc(-n3c(Nc4cccc(C(N)=O)c4)nc4ccccc43)n2)cc(OC)c1OC [Compound 377]
1.12 to 6.72	–	9.79 to 12.6	1.12 to 6.72	> 12.6	9.79 to 12.6	1.12 to 6.72	> 12.6	1.12 to 6.72	1.12 to 6.72	–	–	–	–	COc1cc(Nc2ncnc(Nc3cc(C)[nH]n3)n2)cc(OC)c1OC [Compound 88]
0.881 to 5.29	> 9.91	5.29 to 7.71	0.881 to 5.29	7.71 to 9.91	> 9.91	0.881 to 5.29	> 9.91	0.881 to 5.29	< 0.881	0.881 to 5.29	5.29 to 7.71	–	–	COc1cc(Nc2ncnc(Nc3cc(-c4ccc(Cl)cc4)n[nH]3)n2)cc(OC)c1OC [Compound 367]
> 8.93	0.794 to 4.76	< 0.794	< 0.794	0.794 to 4.76	6.95 to 8.93	< 0.794	> 8.93	< 0.794	0.794 to 4.76	0.794 to 4.76	< 0.794	–	–	COc1cc(Nc2ncnc(N(c3ccc(Cl)cc3)c3nc4ccccc4[nH]3)n2)cc(OC)c1OC [Compound 374]
1.05 to 6.33	6.33 to 9.23	1.05 to 6.33	< 1.05	> 11.9	> 11.9	1.05 to 6.33	6.33 to 9.23	1.05 to 6.33	< 1.05	1.05 to 6.33	1.05 to 6.33	–	–	COc1cc(Nc2ncnc(Nc3cc(-c4ccco4)n[nH]3)n2)cc(OC)c1 [Compound 365]
4.55 to 6.63	–	> 8.53	–	4.55 to 6.63	–	–	> 8.53	4.55 to 6.63	> 8.53	–	–	< 0.758	4.55 to 6.63	COC(=O)c1cccc(Nc2nc3ccccc3n2-c2ncnc(Nc3cc(OC)c(OC)c(OC)c3)n2)c1 [Compound 383]
> 8.76	6.82 to 8.76	6.82 to 8.76	0.779 to 4.67	4.67 to 6.82	> 8.76	4.67 to 6.82	0.779 to 4.67	< 0.779	6.82 to 8.76	0.779 to 4.67	4.67 to 6.82	–	–	COc1cc(Nc2ncnc(-n3c(Nc4cccc(C(=O)O)c4)nc4ccccc43)n2)cc(OC)c1OC [Compound 390]
> 9.23	> 9.23	> 9.23	0.821 to 4.92	> 9.23	> 9.23	> 9.23	> 9.23	0.821 to 4.92	7.18 to 9.23	< 0.821	0.821 to 4.92	–	–	COc1cc(Nc2ncnc(-n3c(Nc4ccc(F)cc4)nc4ccccc43)n2)cc(OC)c1OC [Compound 387]
